In patent US20250129102A1, “CRYSTAL FORM OF PYRIMIDINE HETEROCYCLIC COMPOUND AND PREPARATION METHOD THEREFOR” (D3 Bio (Wuxi) Co., Ltd., priority 2021, published 2025):
Read-outs that look alike come from different tables or passages of the source.

Columns and labels:
[1] = test system: human pancreatic cancer Mia PaCa-2 cells; assay: Pharmacodynamics in vivo, subcutaneously transplanted Mia PaCa-2 tumor model; parameters: species or system Balb/c Nude mice; details: day 22 of administration
Method: Assay on pharmacodynamics in vivo in a subcutaneously transplanted tumor model of human pancreatic cancer Mia PaCa-2 cells in Balb/c Nude mice
Cell culture: Human pancreatic cancer Mia PaCa-2 cells (ATCC-CRL-1420) were cultured in monolayer in vitro in DMEM medium with 10% fetal calf serum and 2.5% horse serum in a 37° C., 5% carbon dioxide incubator. Cells were passaged by routine digestion with trypsin-EDTA twice a week. When the cell saturation reached 80%-90% and the cell number met the requirement, the cells were harvested, counted, and resuspended in an appropriate amount of PBS. Matrigel was added in a ratio of 1:1 to obtain a cell suspension with a cell density of 25×10^6 cells/mL.
Cell inoculation: 0.2 mL (5×10^6 cells/mouse) of Mia PaCa-2 cells (plus Matrigel, 1:1 by volume) were subcutaneously inoculated into the right back of each mouse. When the average tumor volume reached 190 mm^3, mice were randomized into groups based on tumor volume and administration was initiated according to the protocol in Table 15.
Tumor diameter was measured with vernier caliper twice a week. The calculation formula of tumor volume was: V=0.5a×b^2, where a and b represent the long and short diameters of the tumor, respectively.
The anti-tumor efficacy of compound was evaluated by TGI (%) or relative tumor proliferation rate T/C (%). Relative tumor proliferation rate T/C (%)=TRTV/CRTV×100% (TRTV: RTV in a treatment group; CRTV: RTV in a negative control group). The relative tumor volume (RTV) was calculated according to results of tumor measurement, and the calculation formula was RTV=Vt/V0, where V0 was average tumor volume measured at the time of administration by group (i.e., D0), and Vt was average tumor volume at the time of a certain measurement. For TRTV and CRTV, data on the same day were used.
TGI (%) reflected tumor growth inhibition rate. TGI(%)=[(1−(average tumor volume at the end of administration of a treatment group−average tumor volume at the beginning of administration of the treatment group))/(average tumor volume at the end of treatment of a vehicle control group−average tumor volume at the beginning of treatment of the vehicle control group)]×100%.

[2] = Protein binding rate in plasma by equilibrium dialysis, SD rats; format: in vitro ADME
Method: Protein binding rate of the assay compound in plasma of CD-1 mice, SD rats, beagle dogs, cynomolgus monkeys and human was determined by equilibrium dialysis.
Plasma samples with a compound concentration of 2 μM were prepared using plasma of the above five species, placed in a 96-well equilibrium dialysis device, and dialyzed with phosphate buffer solution at 37±1° C. for 4 hours. Warfarin was used as the control compound in this assay. The concentrations of the assay compound in plasma and dialysis buffer were determined by LC-MS/MS method.

[3] = Pharmacokinetics by oral administration and intravenous injection in CD mice; format: in vivo; details: for Area under the plasma concentration-time curve, AUCu: AUC0-last × PPB(Unbound %); for Vd: CD, iv, 2 mg/kg; for AUC(0-t): read-out: Area under the plasma concentration-time curve, AUC0-last
Method: The mixture was vortexed and sonicated to prepare a 1 mg/mL clear solution, which was filtered through a microporous membrane for later use. Male CD mice aged 7 to 10 weeks were selected, and administered candidate compound solutions intravenously or orally. Whole blood was collected for a certain period of time, and prepared to obtain plasma. Drug concentration was analyzed by LC-MS/MS method, and pharmacokinetic parameters were calculated by Phoenix WinNonlin software (Pharsight, USA).

[4] = Metabolic stability in hepatocytes, beagle dogs; format: in vitro ADME; details: dog, cryopreserved hepatocytes
Method: Metabolic stabilities of assay compound in hepatocytes of CD-1 mice, SD rats, beagle dogs, cynomolgus monkeys, and human were assayed, respectively.
Several 96-well sample precipitation plates were prepared and named T0, T15, T30, T60, T90, T120, T0-MC, T120-MC and blank substrates, respectively. The recovery medium and incubation medium were taken out in advance and placed in a 37° C. water bath for pre-heating. Cryopreserved hepatocytes were removed from the liquid nitrogen tank and immediately immersed in a 37° C. water bath (approximately 90 seconds). After the cryopreserved hepatocytes had thawed and loosened, they were poured into a centrifuge tube containing 40 mL of recovery medium, and the tube was gently inverted to allow the cells to be resuspended in the recovery medium. The cells were centrifuged at 100×g at room temperature for 5 min, and the supernatant was removed. The hepatocytes were resuspended in an appropriate volume of incubation medium, and the cell viability was calculated by Trypan Blue staining method. 198 μL of hepatocyte suspension (0.51×10^6 cells/mL) was added to the preheated incubation plate. For the culture medium control group, 198 μL of hepatocyte-free incubation medium was added to T0-MC and T120-MC incubation plate. All incubation plates were pre-incubated in a 37° C. incubator for 10 minutes. Then 2 μL of working solutions of the assay sample and the control compound were added, respectively, and the mixture was mixed well. The incubation plate was immediately put into the shaker in the incubator, and the reaction was initiated while starting the timer. For each time point of each compound, 2 duplicate samples were prepared. The incubation conditions were 37° C., saturated humidity, and 5% CO2. […] All samples were mixed well and analyzed by LC/MS/MS.

## C=C(F)C(=O)N1CCN(c2nc(OC[C@@]34CCCN3C[C@H](F)C4)nc3c2CO[C@H](c2c(F)c(N)cc(C)c2C(F)(F)F)C3)C[C@@H]1CC#N [Compound of formula (I)]
[1]; 10 mg/kg PO QD
  Average tumor volume: 249.87 mm^3
  T/C: 12.39%
  TGI: 93.06%
[1]; 30 mg/kg PO QD
  Average tumor volume: 124.14 mm^3
  T/C: 6.16%
  TGI: 99.64%
[2]; SD rats plasma, 2 μM, equilibrium dialysis 4 hours
  Protein unbound rate (%): 4.8%
[2]; plasma, value used in the SD rat PK table, read-out: Plasma protein unbound rate PPB (Unbound %)
  fraction unbound at 4 h, 2 μM: 0.048
[3]; intravenous injection, 2.0 mg/kg
  Area under the plasma concentration-time curve, AUCu: 0.1556 µM·h
[3]; male, mouse, plasma, intravenous injection, 2.0 mg/kg, Vdss/PPB(Unbound %), read-out: Apparent volume of distribution, Vdss, u
  Vd: 32.3 L/kg
[3]; male, mouse, plasma, intravenous injection, 2.0 mg/kg, read-out: Apparent volume of distribution, Vdss
  Vd: 3.9 L/kg
[3]; male, mouse, plasma, intravenous injection, 2.0 mg/kg
  AUC(0-t): 1.3 µM·h
[3]; male, mouse, plasma, intravenous injection, 2.0 mg/kg, read-out: Clearance rate, CL
  clearance: 40.6 mL/min/kg
[3]; male, mouse, plasma, intravenous injection, 2.0 mg/kg, read-out: Half-life time, T1/2 (converted)
  half-life: 1.7 h
[3]; male, mouse, plasma, oral administration, 10.3 mg/kg
  AUC(0-t): 1.42 µM·h
[3]; male, mouse, plasma, oral administration, 10.3 mg/kg, read-out: Bioavailability F (%)
  bioavailability: 21.9%
[3]; male, mouse, plasma, oral administration, 10.3 mg/kg, read-out: Peak concentration, Cmax
  Cmax: 431 nM
[3]; male, mouse, plasma, oral administration, 10.3 mg/kg, read-out: Time-to-peak, Tmax
  Tmax: 1 h
[3]; oral administration, 10.3 mg/kg
  Area under the plasma concentration-time curve, AUCu: 0.1706 µM·h
[3]; oral administration, 10.3 mg/kg, Cmax × PPB(Unbound %)
  Peak concentration, Cmax, u: 51.7 nM
[4]
  half-life at 1 μM: 3.04 h
[4]; read-out: CLint(hep)
  hepatocyte CLint at 1 μM: 7.6 µL/min/1e6 cells
[4]; read-out: CLint(liver)
  CLint scaled at 1 μM: 52.3 mL/min/kg
